Reference: patent US6441021B1, “Sulfonated amino acid derivatives and metalloproteinase inhibitors containing the same” (Shionogi & Co., Ltd., priority 1996, dated 2002)
Read-outs that look alike come from different tables or passages of the source.

Tests used:
[1] = target: T1, MMP-9 (92 kDa, gelatinase B; type IV collagenase) (Homo sapiens, UniProt P14780); assay: Assay of type IV collagenase inhibitors: activated MMP-9 with type IV collagenase activity kit substrate, fluorescent intensity; type: biochemical
T1 construct: endogenous in cells; enzyme purified from the conditioned medium
Method: (1) Isolation and Purification of MMP-9 (92 kDa, Gelatinase B)
Type IV collagenase (MMP-9) was purified according to the methods descrived in the following literature.
Subsequently, activated MMP-9 was obtained by treating the pro-MMP-9 with trypsin.
(2) Assay Methods of Type IV Collagenase Inhibitors
Collagenase assay was performed using the activated MMP-9 described above and the substrate supplied in the type IV collagenase activity kit (YAGAI, inc.), according to the manufacturer's protocol. The following 4 assays are performed per compound (inhibitor).
(A) substrate (type IV collagenase), enzyme (MMP-9), inhibitor
(B) substrate (type IV collagenase), inhibitor
(C) substrate (type IV collagenase), enzyme (MMP-9)
(D) substrate (type IV collagenase)
According to the manufacturer's protocol, fluorescent intensity was measured and percent inhibition was determined by the following equation.
Inhibition (%)={1−(A−B)/(C−D)}×100

[2] = activated MMP-9, type IV collagenase activity kit substrate, fluorescent intensity, concentration at which percent inhibition reaches 50%
[3] = inhibition of type IV collagenase (MMP-9), concentration at which percent inhibition reaches 50%

T1 sequence (P14780 107-707 limits assumed): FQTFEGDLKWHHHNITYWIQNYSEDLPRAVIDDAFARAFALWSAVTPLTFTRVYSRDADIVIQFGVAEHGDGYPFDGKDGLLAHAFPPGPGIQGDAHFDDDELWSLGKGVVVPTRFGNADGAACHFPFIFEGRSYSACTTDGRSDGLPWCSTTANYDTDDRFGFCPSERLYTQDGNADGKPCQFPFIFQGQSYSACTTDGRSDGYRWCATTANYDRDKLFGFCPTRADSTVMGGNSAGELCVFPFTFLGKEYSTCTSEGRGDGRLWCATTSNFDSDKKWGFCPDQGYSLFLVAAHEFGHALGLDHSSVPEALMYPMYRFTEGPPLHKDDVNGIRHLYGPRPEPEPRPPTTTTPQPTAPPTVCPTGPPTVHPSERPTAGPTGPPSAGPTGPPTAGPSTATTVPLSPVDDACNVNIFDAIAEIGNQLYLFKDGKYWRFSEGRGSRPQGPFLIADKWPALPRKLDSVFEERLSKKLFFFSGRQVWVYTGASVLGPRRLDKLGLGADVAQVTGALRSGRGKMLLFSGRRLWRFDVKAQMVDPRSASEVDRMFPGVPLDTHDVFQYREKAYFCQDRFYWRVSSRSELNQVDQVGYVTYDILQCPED

SMILES	IC50 [1] [µM]	IC50 [1, 2] [µM]	further results
COc1ccc(C(=O)Nc2ccc(S(=O)(=O)N[C@H](Cc3c[nH]c4ccccc34)C(=O)O)cc2)cc1 (hydrate or solvate) [Example 178]			melting point: 233 to 234 °C
CC(C)[C@@H](NS(=O)(=O)c1ccc(NC(=O)c2ccc([N+](=O)[O-])cc2)cc1)C(=O)O (hydrate or solvate) [Example 201]			melting point: 240 to 242 °C
CN(C)c1ccc(C(=O)Nc2ccc(S(=O)(=O)N[C@H](Cc3c[nH]c4ccccc34)C(=O)O)cc2)cc1 (hydrate or solvate) [Example 181]			melting point: 236 to 238 °C
CC(C)[C@@H](NS(=O)(=O)c1ccc(NC(=O)c2ccc(-c3ccccc3)cc2)cc1)C(=O)O [Example 195]	1.1		
O=C(O)[C@@H](Cc1ccccc1)NS(=O)(=O)c1ccc(-c2nnn(-c3ccc(Cl)cc3)n2)cc1 [Example 232]	0.144		
Cc1ccc2[nH]cc(CC(NS(=O)(=O)c3ccc(Oc4ccccc4)cc3)C(=O)O)c2c1 (racemic) [Example 1a-1-65]		0.291	
O=C(O)[C@@H](Cc1c[nH]c2ccccc12)NS(=O)(=O)c1ccc(-c2nc3ccccc3s2)cc1 [Example 1a-1-83]			IC50 [1, 3]: 1.77 µM
CC(C)[C@@H](NS(=O)(=O)c1ccc(Oc2ccccc2)cc1)C(=O)NO [Example 1b-1-63]		0.00039	
CC(C)[C@@H](NS(=O)(=O)c1ccc(-c2nnn(-c3ccc(Br)cc3)n2)cc1)C(=O)O [Example 225]	0.0122		
Cc1ccc(C(=O)Nc2ccc(S(=O)(=O)N[C@@H](C(=O)O)C(C)C)cc2)cc1 [Example 196]	0.0573		
CSc1ccc(-n2nnc(-c3ccc(S(=O)(=O)N[C@H](Cc4ccccc4)C(=O)O)cc3)n2)cc1 [Example 246]	0.0108		
COc1ccc(C(=O)Nc2ccc(S(=O)(=O)N[C@@H](C(=O)O)C(C)C)cc2)cc1 [Example 200]	0.173		
Cc1ccc(-n2nnc(-c3ccc(S(=O)(=O)N[C@H](Cc4c[nH]c5ccccc45)C(=O)O)cc3)n2)cc1 [Example 241]	0.0131		
CC(C)[C@@H](NS(=O)(=O)c1ccc(-c2nnn(-c3ccc(F)cc3)n2)cc1)C(=O)O [Example 243]	0.0529		
O=C(NO)[C@@H](Cc1ccccc1)NS(=O)(=O)c1ccc(C(F)(F)F)cc1 [Example 1b-1-10]		2.1	
COc1ccc(-n2nnc(-c3ccc(S(=O)(=O)N[C@H](Cc4ccccc4)C(=O)O)cc3)n2)cc1 [Example 234]	0.153		
O=C(Nc1ccc(S(=O)(=O)N[C@H](Cc2c[nH]c3ccccc23)C(=O)O)cc1)c1ccc(F)cc1 [Example 185]	0.0422		
Cc1ccc(-n2nnc(-c3ccc(S(=O)(=O)N[C@H](Cc4ccccc4)C(=O)O)cc3)n2)cc1 [Example 233]			IC50 [1, 3]: 0.0864 µM
O=C(O)[C@@H](Cc1ccccc1)NS(=O)(=O)c1ccc(Oc2ccccc2)cc1 [Example 1a-1-60]		1.31	
O=C(NO)[C@H](Cc1c[nH]c2ccccc12)NS(=O)(=O)c1ccc(Oc2ccccc2)cc1 [Example 1b-1-62]		3.5	
CSc1ccc(-c2ccc(S(=O)(=O)N[C@@H](C(=O)O)C(C)C)s2)cc1 [Example 1a-3-9]			IC50 [1, 3]: 0.014 µM
CCC(C)[C@@H](NS(=O)(=O)c1ccc(-c2nnn(-c3ccc(OC)cc3)n2)cc1)C(=O)O (stereo partly drawn) [Example 222]	0.078		
O=C(O)[C@@H](Cc1ccccc1)NS(=O)(=O)c1ccc(-c2ccccc2)cc1 [Example 1a-1-1]		0.24	
COc1ccc(C(=O)Nc2ccc(S(=O)(=O)N[C@@H](C(=O)O)C(C)(C)C)cc2)cc1 [Example 203]	0.173		
Cc1ccc(C#Cc2ccc(S(=O)(=O)N[C@H](Cc3ccccc3)C(=O)O)s2)cc1 [Example 1a-2-37]			IC50 [1, 3]: 0.0922 µM
Cc1ccc(C(=O)Nc2ccc(S(=O)(=O)N[C@H](Cc3c[nH]c4ccccc34)C(=O)O)cc2)cc1 [Example 182]	0.0059		

SMILES	IC50 [1] [µM]	IC50 [1, 2] [µM]	further results
N#Cc1ccc(-n2nnc(-c3ccc(S(=O)(=O)N[C@H](Cc4ccccc4)C(=O)O)cc3)n2)cc1 [Example 235]	0.265		
Cc1ccc(-c2ccc(S(=O)(=O)N[C@H](Cc3c[nH]c4ccccc34)C(=O)O)s2)cc1 [Example 1a-3-3]			IC50 [1, 3]: 0.0108 µM
O=C(O)[C@@H](Cc1ccccc1)NS(=O)(=O)c1ccc(-c2nnn(-c3ccc(Br)cc3)n2)cc1 [Example 228]	0.106		
O=C(O)[C@@H](Cc1ccccc1)N(Cc1ccccc1)S(=O)(=O)c1ccc(-c2nnn(-c3ccccc3)n2)cc1 [Example 258]	0.908		
CC(C)[C@@H](NS(=O)(=O)c1ccc(-c2ccc(F)cc2)s1)C(=O)O [Example 1a-3-8]			IC50 [1, 3]: 1.28 µM
COc1ccc(-c2ccc(S(=O)(=O)N[C@H](Cc3ccccc3)C(=O)O)s2)cc1 [1a-3-10]			IC50 [1, 3]: 0.0083 µM
O=C(NO)[C@@H](Cc1ccccc1)NS(=O)(=O)c1ccc([N+](=O)[O-])cc1 [Example 1b-1-27]		3	
CN(C)c1cccc2c(S(=O)(=O)N[C@H](Cc3ccccc3)C(=O)NO)cccc12 [Example 1b-1-11]		1.7	
O=C(NO)[C@@H](Cc1c[nH]c2ccccc12)NS(=O)(=O)c1ccc(-c2ccccc2)cc1 [Example 1b-1-33]		0.005	
COc1ccc(-c2ccc(S(=O)(=O)N[C@H](Cc3ccccc3)C(=O)O)cc2)cc1 [Example 1a-1-50]		0.553	
CN(C)c1ccc(C(=O)Nc2ccc(S(=O)(=O)N[C@H](Cc3c[nH]c4ccccc34)C(=O)O)cc2)cc1 [Example 181]	0.0539		
CCC(C)[C@@H](NS(=O)(=O)c1ccc(C#Cc2ccc(OC)cc2)cc1)C(=O)O (stereo partly drawn) [Example 1a-2-21]			IC50 [1, 3]: 3.74 µM
O=C(O)[C@@H](Cc1ccccc1)NS(=O)(=O)c1ccc(-c2nnn(-c3ccc(F)cc3)n2)cc1 [Example 231]	0.197		
CC(C)[C@H](C(=O)O)N(CCCCN)S(=O)(=O)c1ccc(Oc2ccccc2)cc1 [Example 255]	0.529		
COc1ccc(C#Cc2ccc(S(=O)(=O)N[C@@H](C(=O)O)C(C)(C)C)cc2)cc1 [Example 1a-2-20]			IC50 [1, 3]: 3.41 µM
CC(C)[C@@H](NS(=O)(=O)c1ccc(-c2ccc(-c3ccccc3)cc2)cc1)C(=O)O [Example 1a-1-45]		0.04	
O=C(O)[C@@H](Cc1c[nH]c2ccccc12)NS(=O)(=O)c1ccc(Oc2ccccc2)cc1 [Example 1a-1-61]		0.247	
CSc1ccc(C(=O)Nc2ccc(S(=O)(=O)N[C@H](Cc3c[nH]c4ccccc34)C(=O)O)cc2)cc1 [Example 184]	0.00325		
O=C(NO)[C@@H](Cc1ccccc1)NS(=O)(=O)c1ccc(-c2ccccc2)cc1 [Example 1b-1-1]		0.03	
CC(C)[C@@H](NS(=O)(=O)c1ccc(-c2ccc(F)cc2)cc1)C(=O)O [Example 1a-1-48]		1.15	
CSc1ccc(-n2nnc(-c3ccc(S(=O)(=O)N[C@H](Cc4c[nH]c5ccccc45)C(=O)O)cc3)n2)cc1 [Example 247]	0.0035		
CC(C)[C@@H](NS(=O)(=O)c1ccc(-c2ccccc2)cc1)C(=O)O [Example 1a-1-43]		0.625	
CC(C)[C@@H](NS(=O)(=O)c1ccc(C#Cc2ccc(F)cc2)cc1)C(=O)O [Example 1a-2-19]			IC50 [1, 3]: 0.203 µM
Cc1ccc2[nH]cc(CC(NS(=O)(=O)c3ccc(-c4ccccc4)cc3)C(=O)NO)c2c1 (racemic) [Example 1b-1-17]		0.0203	
O=C(NO)C(Cc1cscn1)NS(=O)(=O)c1ccc(-c2ccccc2)cc1 (racemic) [Example 1b-1-2]		0.04	
